Measurements from the pKa sets of Baltruschat and Czodrowski (2020).

Conditions: acidic group

First: CC1(C)[C@H]2CC[C@@]1(C)[C@@H](O)[C@@H]2C(=O)O
Second: [NH3+][C@H]1CCC[C@H](C(=O)O)C1
The pKa of the first is lower: 2.74 for the first, 3.85 for the second.

Going from `O=[N+]([O-])c1cccc(/C=N\O)c1` to `COc1ccc(/C=N/O)cc1`, the pKa rises from 10.7 to 11.

Compared with `O=C(O)[C@H]1C[C@@H]1c1ccccc1`, `O=C1NC(=O)C(c2ccccc2)C1=O` (stereo unspecified) is lower in pKa: 4.54 for the first, 3.4 for the second.

First: CN(C)Cc1ccccc1O
Second: [O-]c1cc(O)c2ccccc2[nH+]1
The pKa of the first is higher: 11 for the first, 5.86 for the second.

Going from `CCOC(=S)S` to `CCOCC(=O)O`, the pKa rises from 1.79 to 3.61.

Going from `C[n+]1cccc2cc(S)ccc21` to `Cc1csc(Cc2ccccc2)[n+]1C`, the pKa rises from 4.12 to 10.8.

Going from `CC(=O)C1CCCCC1=O` (stereo unspecified) to `C[N+]1(CCC(=O)O)CCCCC1`, the pKa falls from 10.2 to 3.43.

First: Cc1c(C(=O)O)[nH]c2ccccc12
Second: Cc1cccc(Cl)c1C(=O)O
The pKa of the first is higher: 4.33 for the first, 2.59 for the second.

Compared with `COc1ccc(O)cc1C`, `Cc1cc(N)c(O)cc1C` is higher in pKa: 10.2 for the first, 10.4 for the second.

Going from `O=C(O)c1ccccc1O[C@H]1O[C@@H](CO)[C@H](O)[C@@H](O)[C@@H]1O` to `O=C(O)c1cccc([N+](=O)[O-])c1Cl`, the pKa falls from 3.6 to 2.02.

First: C#CCCCCC(=O)O
Second: CCCC[C@H]([NH3+])C(=O)O
The pKa of the first is higher: 4.58 for the first, 2.39 for the second.

Compared with `O=C1NC(=O)C(=NO)C(=O)N1`, `O=C1C=C(S(=O)(=O)[O-])/C(=N\O)c2cn[nH]c21` is higher in pKa: 4.58 for the first, 8.6 for the second.

First: C=C(C)[C@@H]1CN(C(C)=O)[C@H](C(=O)OC)[C@@H]1CC(=O)O
Second: NC(=O)[C@H](CCC(=O)O)NC=O
The pKa of the first is higher: 4.6 for the first, 4.3 for the second.

Compared with `C[NH+](C)CCCCCCCCCCNC(=O)/C=N/O`, `CCCCCCCP(=O)(CCCCCCC)NC1CCCCC1` is higher in pKa: 9.02 for the first, 12.5 for the second.

First: Cc1cc(O)cc(C)[o+]1
Second: Cc1cc(O)cc([N+](C)(C)C)c1
The pKa of the first is lower: 0.38 for the first, 8.2 for the second.

Going from `Oc1ccc(O)c2ncccc12` to `CC(=O)c1ccc(O)c2ncccc12`, the pKa falls from 9.3 to 7.75.

First: NS(=O)(=O)c1nccs1
Second: Nc1nnc(S(N)(=O)=O)s1
The pKa of the first is higher: 8.25 for the first, 7.69 for the second.

Going from `Cc1cc(I)c(O)c(I)c1` to `[NH3+][C@@H](Cc1nc(I)[nH]c1I)C(=O)[O-]`, the pKa rises from 6 to 8.18.

Going from `N#CC(C#N)=NNc1cccc(Cl)c1Cl` to `Oc1cccc2cncnc12`, the pKa rises from 5.15 to 8.65.

Compared with `CC(=O)/N=c1\sc(S(N)(=O)=O)nn1C`, `CC(C)N(CCC(C(N)=O)(c1ccccc1)c1ccccn1)C(C)C` (stereo unspecified) is higher in pKa: 7.3 for the first, 10.2 for the second.

First: OC(CBr)(Oc1ccccc1)c1ccccc1 (stereo unspecified)
Second: O=C(/C(=N\O)c1ccccc1)c1ccccc1
The pKa of the first is higher: 11.2 for the first, 10 for the second.

First: S=C(Nc1ccc(Cl)cc1)c1ccccc1
Second: c1ccc(CCNc2ncnc3nc[nH]c23)cc1
The pKa of the first is higher: 10.8 for the first, 10.1 for the second.

Going from `O=S1(=O)N=CNc2cccnc21` to `O=[N+]([O-])c1cccc(O)c1[O-]`, the pKa rises from 6.94 to 11.5.

Compared with `CCCCCCCCCCc1c(-c2ccccc2)n[nH]c1O`, `O=C1CCc2ccc(Cl)cc2C1` is higher in pKa: 11 for the first, 12.3 for the second.

First: CCN(CC)CC(=N\O)/C(C)=N/O
Second: CC(C)C[NH2+]CC(=O)O
The pKa of the first is higher: 10.7 for the first, 2.35 for the second.

Going from `N#CC(C#N)c1ccc([N+](=O)[O-])cc1` to `[N-]=[N+]=Nc1ncnc2nc[nH]c12`, the pKa rises from 2.35 to 7.6.

Compared with `O=P(O)(C1CCCCC1)C1CCCCC1`, `O=C1CCC(O)=C1O` is higher in pKa: 3.47 for the first, 4.8 for the second.

Going from `O=C1CCC(=O)N1` to `NC(=O)C[C@H](N)C(N)=O`, the pKa falls from 9.59 to 7.

Same assay, conditions: basic group

First: CCCCCN(CC(O)CC)CC(O)CC (stereo unspecified)
Second: CCC(O)CN(C)CCO (stereo unspecified)
The pKa of the first is higher: 9.2 for the first, 8.7 for the second.

`C[Si](C)(C)OC1CN(Cc2ccc(Cl)cc2)C1` and `COc1cccc(CN2CC(O[Si](C)(C)C)C2)c1` are within 0.2 log units of each other in pKa: 7.72 for the first, 7.81 for the second.

Going from `Nc1ccc(-c2ccc(/[NH+]=C/c3ccccc3O)cc2)cc1` to `COc1ccc(-c2ncc(-c3ccc(N)cc3)o2)cc1`, the pKa falls from 4.75 to 3.71.

First: Cc1ccc(S(=O)(=O)[N-]CCC(=N)N)cc1
Second: CN(C)S(=O)(=O)c1ccc(N)cc1
The pKa of the first is higher: 10.8 for the first, 1.53 for the second.

Going from `CN(C)Cc1ccccc1O` to `CCc1cccc(CN(C)C)c1O`, the pKa falls from 8.6 to 8.02.

First: Nc1ccccc1S(N)(=O)=O
Second: Nc1c2ccccc2nc2c(N)cccc12
The pKa of the first is lower: 1 for the first, 9.3 for the second.

First: CN(C)CCNCCN
Second: CN(C)CCNCC[NH+](C)C
The pKa of the first is higher: 9.91 for the first, 8.96 for the second.

First: C[n+]1ccccc1-c1ccccn1
Second: c1ccc(-c2ccncc2)nc1
The pKa of the first is lower: 0.31 for the first, 4.77 for the second.

First: Cc1nc2ccccc2c(NCCC[NH+](C)C)c1[N+](=O)[O-]
Second: CCCCNCc1ccccc1
The pKa of the first is lower: 5.35 for the first, 9.46 for the second.

First: C1CC2CC1NN2
Second: C[C@@H]1CCC[C@H](C)N1
The pKa of the first is lower: 7.94 for the first, 11 for the second.

Compared with `COc1ccc2[nH]cc(CC(C)N)c2c1` (stereo unspecified), `Cc1ccc(C[NH3+])cc1N` is lower in pKa: 10.3 for the first, 4.26 for the second.

Going from `C(=C\c1ccncc1)/c1ccncc1` to `c1ccc2ncncc2c1`, the pKa falls from 5.82 to 3.51.

First: CC1CCCCN1 (stereo unspecified)
Second: CNC(C)CC1CCCCC1 (stereo unspecified)
The pKa of the first is higher: 11 for the first, 10.5 for the second.

Going from `CCN1CCC[C@@H]1CNC(=O)c1c(OC)ccc([N+](=O)[O-])c1[O-]` to `CCc1cc(Cl)c([O-])c(C(=O)NC[C@H]2CCCN2CC)c1OC`, the pKa rises from 9.12 to 9.54.

Going from `CCCNc1ccncc1S(=O)(=O)NC(=O)NC(C)C` to `CC(C)(C)c1ccccn1`, the pKa falls from 7.58 to 5.72.

Compared with `C=CC(C)(C)N(C)C(C)(C)C`, `CC(O)CN(CCO)C(C)(C)C` (stereo unspecified) is lower in pKa: 11.3 for the first, 9.2 for the second.

Compared with `Ic1cccc(C2NCCS2)c1` (stereo unspecified), `Nc1cccc(Br)c1` is lower in pKa: 4.93 for the first, 3.41 for the second.

Going from `N#Cc1ccc(CN)cc1` to `CSc1cccc(N)c1`, the pKa falls from 8.72 to 4.05.

Compared with `Oc1ccc(O)c2ncccc12`, `CC(=O)c1ccc(O)c2ncccc12` is lower in pKa: 4.5 for the first, 4 for the second.

Going from `O=C(c1ccccc1)n1cnc2ccccc21` to `CN(C)CCC(c1ccccc1)c1ccccc1`, the pKa rises from 1.8 to 9.4.

Compared with `CSC(=N)N`, `CCN(CC)/N=C(\N)CC[Si](C)(C)C` is higher in pKa: 9.83 for the first, 10.7 for the second.

Compared with `COc1cc(S(N)(=O)=O)cc(C(=O)N[C@@H]2C[C@H]3CC[C@@H](C2)N3Cc2ccccc2)c1OC`, `c1ccc(CCNc2ncnc3nc[nH]c23)cc1` is lower in pKa: 8.87 for the first, 4.2 for the second.

First: CN(C)CCCCCCCNC(=O)/C=N/[O-]
Second: CCCCCCCP(=O)(CCCCCCC)NC1CCCCC1
The pKa of the first is higher: 10.5 for the first, 4.87 for the second.

Going from `CC1=C(CC(C)NCC(O)c2ccc([N+](=O)[O-])cc2)CCC1(C)C` (stereo unspecified) to `CC(CN1c2ccccc2Sc2ccccc21)N(C)C` (stereo unspecified), the pKa rises from 8.36 to 8.65.

Compared with `N#CC(C#N)=NNc1cccc(Cl)c1Cl`, `Oc1cccc2cncnc12` is higher in pKa: -0.71 for the first, 3.41 for the second.

Going from `c1cc(N2CCOCC2)ccc1N1CCOCC1` to `CNc1ccccc1C`, the pKa rises from 4.2 to 4.59.

Compared with `Cc1c(Cn2ccnc2)n(C)c2ccc(C(=O)[O-])cc12`, `Nc1cccc(-c2nc3ccccc3s2)c1` is lower in pKa: 6.32 for the first, 3.4 for the second.

Going from `COc1ccccn1` to `COc1cc(C)ncn1`, the pKa rises from 3.34 to 3.65.

Going from `CCO[Si](C)(CN)OCC` to `NCCCCC(=O)[O-]`, the pKa rises from 9.19 to 10.8.

First: Cc1cc(N)c(O)cc1C
Second: CN(C)/C=N/c1ccccc1Cl
The pKa of the first is lower: 5.28 for the first, 6.85 for the second.

Compared with `[NH3+][C@@H](Cc1nc(I)[nH]c1I)C(=O)[O-]`, `CC(C)[C@@]12CN[C@@H](C(=O)[O-])[C@@H]1CC(=O)O2` is higher in pKa: 2.72 for the first, 7.8 for the second.

Compared with `NCCC=C(Cl)Cl`, `NC1=[NH+][C@H]2C[C@@H](N1)N[C@@H]2C(=O)[O-]` is lower in pKa: 9.85 for the first, 5.5 for the second.

Compared with `Nc1nc([O-])c2ncn([C@H]3O[C@@H](CO)[C@H](O)[C@@H]3O)c2n1`, `Cn1ccnc1N=[N+]=[N-]` is lower in pKa: 9.41 for the first, 4.05 for the second.

First: c1c[nH+]ccn1
Second: CCCNC1c2ccccc2C=Cc2ccccc21
The pKa of the first is lower: -5.55 for the first, 8.9 for the second.

Compared with `CCCc1c(C)[n-]n(C2CCN(C)CC2)c1=O`, `CNNC1CC[NH+](C)CC1` is lower in pKa: 9.2 for the first, 5.95 for the second.
